Each structure is given as a SMILES string. Like-named read-outs stand apart in the source and are kept apart here.

The test system of the assay is depressant effects of tetrabenazine (TBZ). In words: tetrabenazine (TBZ) antagonism assay in mice: exploratory activity (EA) and reversal of ptosis (Pt). It is filed as in vivo. The note with it: for ED50: Mus musculus, ip; for percent inhibition at a certain dose, EA (exploratory activity): TBZ 32 mg/kg i.p. The method, then: The utility of the novel compounds of this patent is based on a standard test for antidepressant agents involving antagonism of the depressant effects of tetrabenazine (TBZ). This is the "classical" tetrabenazine antagonism assay described in U.S. Pat. No. 3,787,577. In this test, mice are injected with a test compound 30 minutes prior to the injection of 32 mg/kg i.p. of TBZ, a drug which decreases normal exploratory activity and induces ptosis. After 30 minutes, the mice are tested for two parameters: the presence of normal exploratory activity (EA) and reversal of ptosis (Pt). A control group of mice is given only 32 mg/kg i.p. of TBZ. The biological activity of the novel compounds of this invention may be understood by some representative, nonlimiting examples, presented in Tables I and II.
Tables I lists the compounds tested by a compound number, structural formula, HX or acid addition salt form in which the compound was tested, test data, and internal code number (McN No.). Table II names the various Table I compounds.
*ED50 given in mg/kg for each parameter (except for percent
inhibition at a certain dose in mg/kg, given for four examples: XLIV, XLV

Setting [1] is: mice, i.p., compound 30 minutes prior to 32 mg/kg i.p. TBZ, normal exploratory activity, read-out: TBZ ED50, EA (exploratory activity).
Where [2] appears, read: mice, i.p., compound 30 minutes prior to 32 mg/kg i.p. TBZ, reversal of ptosis, read-out: TBZ ED50, Pt (reversal of ptosis).
Setting [3] is: read-out: TBZ ED50, EA (exploratory activity).
Setting [4] is: read-out: TBZ ED50, Pt (reversal of ptosis).
Setting [5] is: mice, i.p., compound 30 minutes prior to 32 mg/kg i.p. TBZ, normal exploratory activity.
Setting [6] is: mice, i.p., compound 30 minutes prior to 32 mg/kg i.p. TBZ, reversal of ptosis.

Regarding `COc1ccc2c(c1)[C@@H]1CCCN1C[C@H]2c1ccccc1` (relative stereo) [XXXIX, 1,2,3,5,6,10bα-Hexahydro-9-methoxy-6α-phenylpyrrolo[2,1-a]isoquionline], the 50% effective dose (ED50) is, setting by setting: under setting [1], around 40 mg/kg; under setting [2], 8 mg/kg.
Consider `Clc1ccc([C@@H]2CN3CCC[C@@H]3c3ccccc32)cc1` (relative stereo) [XXIX, [6α,10bβ]-6-(4-Chlorophenyl)-1,2,3,5,6,10b-hexahydropyrrolo[2,1-a]isoquinoline], for which the ED50 under setting [3] was found to be 0.27 mg/kg and the ED50 under setting [4] came to 0.13 mg/kg.
In the case of `C[C@@]1(c2ccccc2)CN2CCC[C@@H]2c2ccccc21` (relative stereo) [XXV, 1,2,3,5,6,10bβ-Hexahydro-6-methyl-6α-phenylpyrrolo[2,1-a]isoquinoline], the ED50 worked out at 27 mg/kg under setting [1] and 0.7 mg/kg under setting [2].
For `O=[N+]([O-])c1ccc([C@@H]2CN3CCC[C@@H]3c3ccccc32)cc1` (relative stereo) [XXXVIII, 1,2,3,5,6,10bβ-hexahydro-6α-(4-nitrophenyl)-pyrrolo[2,1-a]isoquinoline] the same measures were 0.51 mg/kg and 0.15 mg/kg.
Turning to `Oc1ccc([C@@H]2CN3CCC[C@H]3c3ccccc32)cc1O` (relative stereo) [XXXVII, 4-(1,2,3,5,6,10bα-Hexahydropyrrolo[2,1-a]isoquinolin-6a-yl)-1,2-benzenediol], the ED50 under setting [1] worked out at 30 mg/kg and the median effective dose (ED50) under setting [2] was 1.8 mg/kg.
Regarding `Oc1ccc(C2CN3CCCC3c3ccccc32)cc1` (stereo not drawn) [XXXVI, 4-(1,2,3,5,6,10bα-Hexahydropyrrolo[2,1-a]isoquinolin-6α-yl)phenol], the “TBZ ED50, EA (exploratory activity)” value under setting [5] is reported as “ca. 14 mg/kg”. Moreover, the “TBZ ED50, Pt (reversal of ptosis)” value under setting [6] was 10 mg/kg.
On to `c1ccc([C@H]2Cc3ccccc3[C@@H]3CCCN23)cc1` (relative stereo) [LII, 1,2,3,5,6,10bα-Hexahydro-5α-phenylpyrrolo[2,1-a]isoquinoline], for which the median effective dose (ED50) is, setting by setting: under setting [3], around 30 mg/kg; under setting [4], 32 mg/kg.
`Clc1ccc([C@@H]2CN3CCC[C@H]3c3cc(Cl)ccc32)cc1` (relative stereo) [Compound XLII, [6α,10bα]-9-Chloro-6-(4-chlorophenyl)-1,2,3,5,6,10b-hexahydropyrrolo[2,1-a]isoquinoline]: the ED50 by setting is: under setting [1], 100 mg/kg; under setting [2], 37 mg/kg.
For `Clc1ccc([C@@H]2CN3CCC[C@@H]3c3cc(Cl)ccc32)cc1` (relative stereo) [XXXII, [6α,10bβ]-9-Chloro-6-(4-chlorophenyl)-1,2,3,5,6,10b-hexahydropyrrolo[2,1-a]isoquinoline] the same measures were 37 mg/kg and 4 mg/kg.
For `C[C@]12CCCN1C[C@@H](c1ccccc1)c1ccccc12` (relative stereo) [IVb, [6α,10bβ]-1,2,3,5,6,10b-Hexahydro-10b-methyl-6-phenylpyrrolo[2,1-a]isoquinoline] the same measures were 9.2 mg/kg and 3.8 mg/kg.
Take `Oc1cccc([C@@H]2CN3CCC[C@@H]3c3ccccc32)c1` (relative stereo) [Compound XLI, 3-(1,2,3,5,6,10bβ-Hexahydropyrrolo[2,1-a]isoquinolin-6α-yl)phenol]: the median effective dose (ED50) by setting is: under setting [1], above 10 mg/kg; under setting [2], 0.11 mg/kg.
On the same counts, the results for `c1ccc([C@@H]2CN3CCC[C@@H]3c3ccccc32)cc1` (relative stereo) [Xb, [6α,10bβ]-1,2,3,5,6,10b-Hexahydro-6-phenyl-pyrrolo[2,1-a]isoquinoline] are 0.34 mg/kg and 0.07 mg/kg.
For the compound `FC(F)(F)c1cccc([C@@H]2CN3CCC[C@@H]3c3ccccc32)c1` (relative stereo) [XLIX, 1,2,3,5,6,10bβ-Hexahydro-6α-[(3-trifluoromethyl)phenyl]-pyrrolo[2,1-a]isoquinoline], the ED50 amounted to 1.2 mg/kg under setting [1] and 0.43 mg/kg under setting [2].
For `Nc1ccc([C@@H]2CN3CCC[C@H]3c3ccccc32)cc1` (relative stereo) [XLVIII, 4-(1,2,3,5,6,10bα-Hexahydropyrrolo[2,1-a]isoquinoline-6α-yl)benzenamine] the same measures were 1.4 mg/kg and 0.41 mg/kg.
Consider `FC1(c2ccccc2)CN2CCCC2c2ccccc21` (stereo not drawn) [LIII, 6α-Fluoro-1,2,3,5,6,10bα-hexahydro-6-phenylpyrrolo[2,1-a]isoquinoline], for which, under setting [4], the ED50 stood at 1.2 mg/kg. In addition, the “percent inhibition at a certain dose, EA (exploratory activity)” value (“percent inhibition at a certain dose, EA” below) (mice, i.p., @ 40 mg/kg) was 60%.
For the compound `COc1ccc([C@@H]2CN3CCC[C@@H]3c3ccccc32)cc1OC` (relative stereo) [XLV, 1,2,3,5,6,10bβ-Hexahydro-6α-(3,4-dimethoxyphenyl)pyrrolo[2,1-a]isoquinoline], the ED50 under setting [2] is 0.14 mg/kg. Besides, where the note is “mice, i.p., @ 30 mg/kg”, the “percent inhibition at a certain dose, EA” value came to 33%.
Regarding `OC1(c2ccccc2)CN2CCCC2c2ccccc21` (single isomer, unassigned) [XLIII, 1,2,3,5,6,10b-Hexahydro-6-phenylpyrrolo[2,1-a]isoquinolin-6-ol], the “TBZ ED50, EA (exploratory activity)” value under setting [5] is recorded as 33 mg/kg. Besides, the “TBZ ED50, Pt (reversal of ptosis)” value under setting [6] turned out to be 5.0 mg/kg.
With `Oc1cccc([C@@H]2CN3CCC[C@H]3c3ccccc32)c1` (relative stereo) [XLIV, 3-(1,2,3,5,6,10bα-Hexahydropyrrolo[2,1-a]isoquinolin-6α-yl)phenol], the ED50 under setting [2] was determined as 3.1 mg/kg. For the same compound, the “percent inhibition at a certain dose, EA” value (mice, i.p., @ 30 mg/kg) came to 37%.
Turning to `Clc1ccccc1[C@@H]1CN2CCC[C@@H]2c2ccccc21` (relative stereo) [LI, [6α,10bβ]-6-(2-chlorophenyl)-1,2,3,5,6,10b-hexahydropyrrolo[2,1-a]isoquinoline], the median effective dose (ED50) under setting [2] stood at 0.2 mg/kg. Further, the “percent inhibition at a certain dose, EA” value (mice, i.p., @ 60 mg/kg) is reported as 37%.
As to `COc1cc2c(cc1OC)[C@H]1CCCN1C[C@H]2c1ccccc1` (relative stereo) [XXVII, [6α,10bβ]-1,2,3,5,6,10b-Hexahydro-8,9-dimethoxy-6-phenylpyrrolo[2,1-a]isoquinoline], the ED50 under setting [1] was 17 mg/kg and the median effective dose (ED50) under setting [2] was 7.2 mg/kg.
For `COc1ccc([C@@H]2CN3CCC[C@H]3c3ccccc32)cc1` (relative stereo) [XXXI, 1,2,3,5,6,10bα-Hexahydro-6α-(4-methoxyphenyl)pyrrolo[2,1-a]isoquinoline] the same measures were around 60 mg/kg and 3 mg/kg.
On the same counts, the results for `COc1ccc([C@@H]2CN3CCC[C@@H]3c3ccccc32)cc1` (relative stereo) [XXXIII, 1,2,3,5,6,10bβ-Hexahydro-6α-(4-methoxyphenyl)pyrrolo[2,1-a]isoquinoline] are 7 mg/kg and 0.19 mg/kg.
Consider `Clc1ccc([C@@H]2CN3CCC[C@H]3c3ccccc32)cc1Cl` (relative stereo) [XXIV, 6α-(3,4-Dichlorophenyl)-1,2,3,5,6,10bα-hexahydropyrrolo[2,1-a]isoquinoline], for which the median effective dose (ED50) is, setting by setting: under setting [3], around 40 mg/kg; under setting [4], 8 mg/kg.
Consider `COc1cccc([C@@H]2CN3CCC[C@@H]3c3ccccc32)c1` (relative stereo) [Compound XL, 1,2,3,5,6,10bβ-Hexahydro-6α-(3-methoxyphenyl)pyrrolo[2,1-a]isoquinoline], for which the ED50 was around 0.17 mg/kg under setting [1] and around 0.07 mg/kg under setting [2].
For `C[C@@]1(c2ccccc2)CN2CCC[C@H]2c2ccccc21` (relative stereo) [XLVI, 1,2,3,5,6,10bα-Hexahydro-6-methyl-6α-phenylpyrrolo[2,1-a]isoquinoline] the same measures were 22.5 mg/kg and 16 mg/kg.
For the compound `c1ccc2c(c1)[C@H](C1CCCCC1)CN1CCC[C@H]21` (relative stereo) [XXVIII, [6α,10β]-6-Cyclohexyl-1,2,3,5,6,10b-hexahydropyrrolo[2,1-a]isoquinoline], the ED50 runs as follows: under setting [1], 6.4 mg/kg; under setting [2], 1.9 mg/kg.
Turning to `OC1(c2ccccc2)CN2CCCC2c2ccccc21` (single isomer, unassigned) [XXXIV, 1,2,3,5,6,10b-Hexahydro-6-phenylpyrrolo[2,1-a]isoquinolin-6-ol], the “TBZ ED50, EA (exploratory activity)” value under setting [5] is on record as 8.4 mg/kg. For the same compound, the “TBZ ED50, Pt (reversal of ptosis)” value under setting [6] is listed as 1.6 mg/kg.
For the compound `COc1cccc2c1[C@H](c1ccccc1)CN1CCC[C@H]21` (relative stereo) [XLVII, 1,2,3,5,6,10bβ-Hexahydro-7-methoxy-6α-phenylpyrrolo[2,1-a]isoquinoline], the ED50 under setting [3] is 2.8 mg/kg and the median effective dose (ED50) under setting [4] was around 6.5 mg/kg.
Turning to `C[C@]12CCCN1C[C@@H](c1ccc(F)cc1)c1ccc(F)cc12` (relative stereo) [L, 9-Fluoro-6α-(4-fluorophenyl)-1,2,3,5,6,10b-hexahydro-10bβ-methylpyrrolo[2,1-a]isoquinoline], the median effective dose (ED50) by setting is: under setting [1], 6.1 mg/kg; under setting [2], 5.6 mg/kg.
Take `Clc1ccc([C@@H]2CN3CCC[C@H]3c3ccccc32)cc1` (relative stereo) [XXX, 6α-(4-Chlorophenyl)-1,2,3,5,6,10bα-hexahydropyrrolo[2,1-a]isoquinoline]: the median effective dose (ED50) under setting [3] turned out to be 8.1 mg/kg and the ED50 under setting [4] was 5.4 mg/kg.

As a reminder, the ED50 is the dose that gives a 50% effect, or the effect in half of the subjects.

These data come from patent US4595688A, “Hexahydropyrrolo[2,1-a]isoquinoline derivatives and antidepressant use thereof” (priority 1984, dated 1986).
